Assay results as given in ChEMBL document CHEMBL1141451, “Crotonkinins A and B and related diterpenoids from Croton tonkinensis as anti-inflammatory and antitumor agents” (J Nat Prod, 2007).
≈ marks a conversion by molar mass, not a printed value.

Tests used:
[1] = system: A549; experiment: Cytotoxicity against human A549 cells; assay type: functional, cell-based
[2] = system: KB; experiment: Cytotoxicity against human KB cells; assay type: functional, cell-based
[3] = Inhibition of nitric oxide synthase in mouse BV2 cells assessed as inhibition of LPS-induced NO production; assay type: cell-based; conditions: BV-2
[4] = system: BV-2; experiment: Inhibition of NADPH oxidase in mouse BV2 cells assessed as NOX-dependent ROS production at 50 uM; assay type: cell-based
[5] = Cytotoxicity against human KB-VIN cells; assay type: functional, cell-based; conditions: KBVIN
[6] = system: MCF7; experiment: Cytotoxicity against human MCF7 cells; assay type: functional, cell-based
[7] = Cytotoxicity against human KB-VIN cells at 20 ug/ml; assay type: functional; conditions: KBVIN
[8] = system: MCF7; experiment: Cytotoxicity against human MCF7 cells at 20 ug/ml; assay type: functional
[9] = system: KB; experiment: Cytotoxicity against human KB cells at 20 ug/ml; assay type: functional
[10] = system: A549; experiment: Cytotoxicity against human A549 cells at 20 ug/ml; assay type: functional
[11] = Inhibition of NADPH oxidase in mouse BV2 cells assessed as NOX-dependent ROS production; conditions: BV-2

| SMILES | EC50 [1] [µg/mL] | EC50 [2] [µg/mL] | IC50 [3] [nM] | inhibition [4] [%] | EC50 [5] [µg/mL] | EC50 [6] [µg/mL] | inhibition at 20 µg/mL [7] [%] | inhibition at 20 µg/mL [8] [%] | inhibition at 20 µg/mL [9] [%] | inhibition at 20 µg/mL [10] [%] | IC50 [11] [µM] |
| --- | --- | --- | --- | --- | --- | --- | --- | --- | --- | --- | --- |
| C=C1C(=O)[C@]23C[C@H]1CC[C@H]2[C@]1(C)CCC[C@](C)(COC(C)=O)[C@H]1C[C@H]3O | 1.26 (≈ 3.5 µM) | 0.71 (≈ 1.97 µM) | 1300 | 24.8 | 0.61 (≈ 1.69 µM) | 0.65 (≈ 1.8 µM) | – | – | – | – | – |
| CC(=O)OC[C@@]1(C)CCC[C@]2(C)[C@@H]1C[C@H](O)[C@@]13C[C@@H](CC[C@@H]21)[C@H](C)C3=O | – | – | 42500 | 9.5 | – | – | < 50 | < 50 | < 50 | < 50 | – |
| C=C1C(=O)[C@@]23[C@H](O)C[C@@H]4C(C)(C)CC[C@@H](OC(C)=O)[C@@]4(C)[C@@H]2CC[C@@H]1[C@H]3O | 3.03 (≈ 8.05 µM) | 0.91 (≈ 2.42 µM) | 1300 | 29.4 | 0.78 (≈ 2.07 µM) | 0.94 (≈ 2.5 µM) | – | – | – | – | – |
| C=C1C(=O)[C@@]23[C@H](O)C[C@@H]4[C@@](C)(COC(C)=O)CCC[C@@]4(C)[C@@H]2CC[C@@H]1[C@H]3O | 2.78 (≈ 7.38 µM) | 0.93 (≈ 2.47 µM) | – | – | 0.88 (≈ 2.34 µM) | 1.98 (≈ 5.26 µM) | – | – | – | – | – |
| COC(=O)[C@@H](N)CCCNC(=N)N[N+](=O)[O-] [L-NAME] | – | – | 20100 | – | – | – | – | – | – | – | – |
| C=C1C(=O)[C@]23C[C@H]1CC[C@H]2[C@]1(C)CCCC(C)(C)[C@H]1C[C@H]3O | 4.77 (≈ 15.8 µM) | 0.79 (≈ 2.61 µM) | 4000 | 23.1 | 0.74 (≈ 2.45 µM) | 1.47 (≈ 4.86 µM) | – | – | – | – | – |
| C=C1C(=O)[C@@]23CC[C@@H]4[C@@](C)(COC(C)=O)CCC[C@@]4(C)[C@@H]2CC[C@@H]1C3 | 6.56 (≈ 19 µM) | 3.75 (≈ 10.9 µM) | – | – | 2.84 (≈ 8.24 µM) | 6.11 (≈ 17.7 µM) | – | – | – | – | – |
| C=C1C(=O)[C@]23C[C@H]1CC[C@H]2[C@]1(C)CCC[C@](C)(CO)[C@H]1C[C@H]3O | 3.96 (≈ 12.4 µM) | 0.87 (≈ 2.73 µM) | 1400 | 20.6 | 0.82 (≈ 2.57 µM) | 0.98 (≈ 3.08 µM) | – | – | – | – | – |
| c1ccc2c(c1)[I+]c1ccccc1-2 [DIPHENYLENEIODONIUM] | – | – | – | 94.3 | – | – | – | – | – | – | 16 |
| C=C1C[C@]23C(=O)C[C@H]4C(C)(C)CCC[C@]4(C)[C@H]2CC[C@H]1[C@@H]3O [CROTONKININ A] | – | – | 46200 | 11.2 | – | – | < 50 | < 50 | < 50 | < 50 | – |
| C=C1C(=O)[C@@]23[C@H](O)C[C@@H]4C(C)(C)CCC[C@@]4(C)[C@@H]2CC[C@@H]1[C@H]3O | 1.45 (≈ 4.55 µM) | 0.64 (≈ 2.01 µM) | 1200 | 29.4 | 0.63 (≈ 1.98 µM) | 0.75 (≈ 2.36 µM) | – | – | – | – | – |
| C=C1C(=O)[C@@]23CC[C@@H]4[C@@](C)(CO)CCC[C@@]4(C)[C@@H]2CC[C@@H]1C3 | 6.52 (≈ 21.6 µM) | 1.47 (≈ 4.86 µM) | – | – | 1.31 (≈ 4.33 µM) | 4.31 (≈ 14.2 µM) | – | – | – | – | – |
| C=C1C(=O)[C@@]23CC[C@H]4[C@@](C)(CCC[C@]4(C)C(=O)O)[C@@H]2CC[C@@H]1C3 | 3.91 (≈ 12.4 µM) | 1.04 (≈ 3.29 µM) | 2600 | 14.2 | 1.08 (≈ 3.41 µM) | 2.69 (≈ 8.5 µM) | – | – | – | – | – |
